# Patent US10815276B2, “Cell penetrating peptides and methods of making and using thereof” (Entrada Therapeutics, Inc., priority 2014, dated 2020)
# Starred links: 1 amine or outer side, 2 acyl side, 3 side chain; linkers in the order of their positions; H or OH if unused. Positions of bridges follow the written chain, without caps; N, C: chain ends. Non-standard residues stand in square brackets, D forms with d. Residues, ends and D or L forms follow the SMILES beside them. Trimesoyl = O=C(c1cc(C(=O)[*:2])cc(C(=O)[*:3])c1)[*:1]; F2Pmp = N[C@@H](Cc1ccc(C(F)(F)P(=O)(O)O)cc1)C(=O)O; d(pT) = C[C@H](OP(=O)(O)O)[C@@H](N)C(=O)O; 2Nal = N[C@@H](Cc1ccc2ccccc2c1)C(=O)O; Pip = O=C(O)[C@@H]1CCCCN1; Dap = NC[C@H](N)C(=O)O; Sar = CNCC(=O)O
# How the values were obtained:
# [1] = target: T1, Pin1 (Homo sapiens, UniProt Q13526, S16A/Y23A); assay: FA competition with FITC-labeled inhibitor 5; assay type: binding; details: 0.1 μM labeled inhibitor 5, 1 μM Pin1
# T1 construct: The full-length human S16A/Y23A mutant Pin1 was expressed and purified from E. coli; made in house
# Protocol: FIGS. 32A and 32B display the competition for binding to Pin1 by inhibitors 5 and 7. Each reaction contained 0.1 μM FITC-labeled inhibitor 5, 1 μM Pin1, and 0-5 μM unlabeled inhibitor 5 […] or inhibitor 7 (FIG. 32B) and the FA value was measured and plotted against the competitor concentration.
# (§1) [formula] where Y is the FA value at a given protein concentration x, L is the peptide concentration, Qb/Qf is the correction factor for fluorophore-protein interaction, Amax is the maximum FA value when all of the peptides are bound to protein, while Amin is the minimum FA value when all of the peptides are free. FA competition assay was performed by incubating 100 nM FITC-labeled Pin1 inhibitor 5 with 1 μM Pin1, followed by the addition of 0-5 μM unlabeled inhibitor. The FA values were measured similarly on a pate reader. IC50 values were obtained by plotting the FA values against the competitor concentration and curve fitting using the four-parameter dose-response inhibition equation (Prism 6, GraphPad).
# [2] = test system: HeLa cells; details: read-out: IC50 of HeLa cell growth; MTT
# From the text: The effect of peptide 37 on the growth of HeLa cells was examined by using the MTT cell viability assay.
# [3] = test system: HeLa cells; assay: MTT proliferation assay with Pin1 inhibitors; assay type: cell-based, human; details: 3-day treatment at 20 μM
# Protocol: HeLa cells (100 μL/each well, 5×10^4 cells/mL) were seeded in a 96-well culture plate and allowed to grow overnight in DMEM supplemented with 10% FBS. […] After that, 10 μL of a MTT stock solution (5 mg/mL) was added into each well. The plate was incubated at 37° C. for 4 h and 100 μL of SDS-HCl solubilizing solution was added into each well, followed by thorough mixing. The plate was incubated at 37° C. overnight and the absorbance of the formazan product was measured at 570 nm on a Molecular Devices Spectramax M5 plate reader. Each experiment was performed in triplicates and the cells untreated with peptide were used as control.
# [4] = target: T1, Pin1; assay: Fluorescence anisotropy binding to Pin1
# Protocol: The gene coding for the catalytic domain of PTP1B (amino acids 1-321) was amplified by the polymerase chain reaction using PTP1B cDNA as template and oligonucleotides 5′-[…]-3′ and 5′-[…]-3′ as primers. […] Expression and purification of the ybbR-tagged PTP1B were carried out as previously described (Ren, L et al. Biochemistry 2011, 50, 2339-2356). […] The reaction mixture was passed through a G-25 fast-desalting column equilibrated in 30 mM HEPES, pH 7.4, 150 mM NaCl to remove any free dye molecules. The full-length human S16A/Y23A mutant Pin1 was expressed and purified from E. coli as previously described (Liu, T et al. J. Med. Chem. 2010, 53, 2494-2501).
# FA experiments were carried out by incubating 100 nM FITC-labeled peptide with varying concentrations of protein in 20 mM HEPES (pH 7.4), 150 mM NaCl, 2 mM magnesium acetate, and 0.1% bovine serum albumin (BSA) for 2 h at room temperature. The FA values were measured on a Molecular Devices Spectramax M5 plate reader, with excitation and emission wavelengths at 485 and 525 nm, respectively. Equilibrium dissociation constants (KD) were determined by plotting the FA values as a function of protein concentration and fitting the curve to the following equation:
# as §1
# [5] = test system: HeLa cells; assay: Cellular uptake by flow cytometry; assay type: cell-based, human; details: 5 μM FITC-labeled peptide, 2 h
# Protocol: The cellular uptake efficiency of peptide 37, peptide 1, and a previously reported membrane-impermeable monocyclic Pin1 inhibitor (Table 18, peptide 46) was assessed by incubating HeLa cells with the FITC-labeled peptides (5 μM) for 2 h and quantifying the total intracellular fluorescence by flow cytometry analysis. […] By contrast, cells treated with peptides 1 and 37 gave MFI values of 2562 and 8792, respectively. Thus, peptide 37 is internalized by HeLa cells ˜4-fold more efficiently than peptide 1. Presumably, the negative charged phosphate group of peptide 1 interacted electrostatically with the positively charged CPP motif and reduced the cellular uptake efficiency of the latter.
# [6] = test system: HeLa cells; assay: Western blot of PML protein level; assay type: cell-based, human; details: 5 μM
# Protocol: FIGS. 38A, 38B, 38C, and 38D display cellular activity of peptide 37. (FIG. 38A) Cellular uptake of peptides 1, 37, and 46 (5 μM) by HeLa cells as analyzed by flow cytometry. MFI, mean fluorescence intensity; none, untreated cells (no peptide). (FIG. 38B) Anti-proliferative effect of peptides 37, 46, and 47 on HeLa cells as measured by MTT assay. (FIG. 38C) Western blots showing the effect of peptides 1, 37 and 47 on the protein level of PML in HeLa cells. β-Actin was used as loading control. (FIG. 38D) Quantification of western blot results from (FIG. 38C). Data reported were after background subtraction and represent the mean±SD from 3 independent experiments.
# Finally, to ascertain that Pin1 is the molecular target of peptide 37 in vivo, the intracellular protein level of a well-established Pin1 substrate, […] (PML), was examined by western blot analysis. Pin1 negatively regulates the PML level in a phosphorylation-dependent manner and inhibition of Pin1 activity is expected to stabilize PML and increase its intracellular level. […] The effect was already significant at 0.2 μM inhibitor (1.8-fold increase in the PML level) and plateaued at ˜1 μM (3.3-fold increase). Again, bicyclic peptide 47 had no effect under the same conditions, while peptide 1 (the positive control, at 5 μM) increased the PML level by 3.1-fold.
# [7] = test system: A549 lung cancer cells; assay: Live-cell confocal microscopy of FITC-labeled PTP1B inhibitors; assay type: cell-based, human; details: 5 μM FITC-labeled inhibitor, 2 h
# Protocol: Approximately 5×10^4 A549 cells were seeded in 35-mm glass-bottomed microwell dish (MatTek) containing 1 mL of media and cultured for one day. A549 cells were gently washed with DPBS once and treated with the FITC-labeled PTP1B inhibitors (5 μM), dextran^Rho (1 mg mL^−1) in growth media for 2 h at 37° C. in the presence of 5% CO2. The peptide-containing media was removed and the cells were washed with DPBS three times and incubated for 10 min in 1 mL of DPBS containing 5 μM DRAQS. The cells were again washed with DPBS twice. Then the cells were imaged on a Visitech Infinity 3 Hawk 2D-array live cell imaging confocal microscope (with a 60× oil immersion lens) at 37° C. in the presence of 5% CO2. Live-cell confocal microscopic imaging of HEK293 cells after treatment with FITC-labeled Pin1 inhibitors were similarly conducted.
# [8] = target: T2, PTP1B (Homo sapiens, UniProt P18031); assay: PTP inhibition assay (pNPP); assay type: biochemical; details: monocyclic peptide inhibitors
# T2 construct: The gene coding for the catalytic domain of PTP1B (amino acids 1-321) was amplified; made in house; host or cells: prokaryotic vector pET-22b(+)-ybbR
# Protocol: (§2) PTP assays were performed in a quartz microcuvette (total volume 150 μL). The reaction mixture contains 100 mM Tris-HCl, pH 7.4, 50 mM NaCl, 2 mM EDTA, 1 mM TCEP, 0-1 μM of PTP inhibitor, and 500 μM para-nitrophenyl phosphate (pNPP). The enzymatic reaction was initiated by the addition of PTP (final concentration 15-75 nM) and monitored continuously at 405 nm on a UV-VIS spectrophotometer. Initial rates were calculated from the reaction progress curves (typically <60 s). The half-maximal inhibition constant (IC50) was defined as the concentration of an inhibitor that reduced the enzyme activity to 50% and was obtained by plotting the rates (V) against the inhibitor concentration [I] and fitting the data against the equation
# [formula] where V0 is the enzymatic reaction rate in the absence of inhibitor. […] The reaction rate (V) was plotted against the pNPP concentration ([S]) and fitted against the equation
# [formula] to obtain the Michaelis constant K. The Ki value was obtained by plotting the K values against the inhibitor concentration [I] and fitted to equation
# [formula] where K0 is the Michaelis constant in the absence of inhibitor ([I]=0).
# [9] = target: PTPRO (Homo sapiens, UniProt Q16827); assay: PTP inhibition assay (pNPP); assay type: biochemical; details: 1 μM inhibitor
# Protocol: as §2
# [10] = target: PTPH1 (Homo sapiens, UniProt P26045); assay: PTP inhibition assay (pNPP); assay type: biochemical; details: 1 μM inhibitor
# Protocol: as §2
# [11] = target: PTPRC (Homo sapiens, UniProt P08575); assay: PTP inhibition assay (pNPP); assay type: biochemical; details: 1 μM inhibitor
# Protocol: as §2
# [12] = target: HePTP (Homo sapiens, UniProt P35236); assay: PTP inhibition assay (pNPP); assay type: biochemical; details: 1 μM inhibitor
# Protocol: as §2
# [13] = target: SHP1 (Homo sapiens, UniProt P29350); assay: PTP inhibition assay (pNPP); assay type: biochemical; details: 1 μM inhibitor; read-out: Inhibition of SHP-1
# Protocol: as §2
# [14] = Serum stability test (human serum); assay type: in vitro ADME; details: 25% human serum (supernatant after centrifugation), 24 h at 37° C., read-out: Degradation in human serum
# Protocol: The stability tests were carried by modifying a previously reported procedure (Nguyen, L T et al. PLoS One 2010, 5, e12684). Diluted human serum (25%) was centrifuged at 15,000 rpm for 10 min, and the supernatant was collected. A peptide stock solution was diluted into the supernatant to a final concentration of 5 μM and incubated at 37° C. At various time points (0-24 h), 200-μL aliquots were withdrawn and mixed with 50 μL of 15% trichloroacetic acid and incubated at 4° C. overnight. The final mixture was centrifuged at 15,000 rpm for 10 min in a microcentrifuge, and the supernatant was analyzed by reversed-phase HPLC equipped with a C18 column. The amount of remaining peptide (%) was determined by integrating the area underneath the peptide peak (monitored at 214 nm) and comparing with that of the control reaction (no serum).
# T1 sequence (Q13526 whole entry S16A/Y23A): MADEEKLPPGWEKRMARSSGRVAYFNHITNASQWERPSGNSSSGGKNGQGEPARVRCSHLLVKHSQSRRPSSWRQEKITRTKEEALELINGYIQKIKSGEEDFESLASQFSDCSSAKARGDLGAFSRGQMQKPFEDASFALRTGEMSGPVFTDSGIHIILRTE
# Chain of HePTP (P35236 whole entry, species assumed): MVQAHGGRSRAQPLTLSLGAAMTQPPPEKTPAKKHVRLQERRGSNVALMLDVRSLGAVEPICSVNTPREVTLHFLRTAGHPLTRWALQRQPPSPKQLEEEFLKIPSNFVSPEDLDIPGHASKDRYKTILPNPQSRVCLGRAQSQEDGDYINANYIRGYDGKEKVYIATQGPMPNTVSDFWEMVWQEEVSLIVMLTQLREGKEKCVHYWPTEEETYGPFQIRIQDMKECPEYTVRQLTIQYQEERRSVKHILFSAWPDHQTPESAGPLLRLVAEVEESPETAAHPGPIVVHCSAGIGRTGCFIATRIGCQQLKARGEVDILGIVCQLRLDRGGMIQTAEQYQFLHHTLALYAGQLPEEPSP
# T2 sequence (P18031 1-321): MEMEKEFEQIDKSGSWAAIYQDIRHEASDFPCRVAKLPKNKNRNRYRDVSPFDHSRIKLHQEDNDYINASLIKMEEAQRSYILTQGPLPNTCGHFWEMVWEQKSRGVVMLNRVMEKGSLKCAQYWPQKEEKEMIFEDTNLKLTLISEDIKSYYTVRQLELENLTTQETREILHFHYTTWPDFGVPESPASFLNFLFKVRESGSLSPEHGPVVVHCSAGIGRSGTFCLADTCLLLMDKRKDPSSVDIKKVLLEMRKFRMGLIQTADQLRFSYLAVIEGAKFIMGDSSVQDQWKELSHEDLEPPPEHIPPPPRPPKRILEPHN
# Chain of PTPRO (Q16827 30-1216): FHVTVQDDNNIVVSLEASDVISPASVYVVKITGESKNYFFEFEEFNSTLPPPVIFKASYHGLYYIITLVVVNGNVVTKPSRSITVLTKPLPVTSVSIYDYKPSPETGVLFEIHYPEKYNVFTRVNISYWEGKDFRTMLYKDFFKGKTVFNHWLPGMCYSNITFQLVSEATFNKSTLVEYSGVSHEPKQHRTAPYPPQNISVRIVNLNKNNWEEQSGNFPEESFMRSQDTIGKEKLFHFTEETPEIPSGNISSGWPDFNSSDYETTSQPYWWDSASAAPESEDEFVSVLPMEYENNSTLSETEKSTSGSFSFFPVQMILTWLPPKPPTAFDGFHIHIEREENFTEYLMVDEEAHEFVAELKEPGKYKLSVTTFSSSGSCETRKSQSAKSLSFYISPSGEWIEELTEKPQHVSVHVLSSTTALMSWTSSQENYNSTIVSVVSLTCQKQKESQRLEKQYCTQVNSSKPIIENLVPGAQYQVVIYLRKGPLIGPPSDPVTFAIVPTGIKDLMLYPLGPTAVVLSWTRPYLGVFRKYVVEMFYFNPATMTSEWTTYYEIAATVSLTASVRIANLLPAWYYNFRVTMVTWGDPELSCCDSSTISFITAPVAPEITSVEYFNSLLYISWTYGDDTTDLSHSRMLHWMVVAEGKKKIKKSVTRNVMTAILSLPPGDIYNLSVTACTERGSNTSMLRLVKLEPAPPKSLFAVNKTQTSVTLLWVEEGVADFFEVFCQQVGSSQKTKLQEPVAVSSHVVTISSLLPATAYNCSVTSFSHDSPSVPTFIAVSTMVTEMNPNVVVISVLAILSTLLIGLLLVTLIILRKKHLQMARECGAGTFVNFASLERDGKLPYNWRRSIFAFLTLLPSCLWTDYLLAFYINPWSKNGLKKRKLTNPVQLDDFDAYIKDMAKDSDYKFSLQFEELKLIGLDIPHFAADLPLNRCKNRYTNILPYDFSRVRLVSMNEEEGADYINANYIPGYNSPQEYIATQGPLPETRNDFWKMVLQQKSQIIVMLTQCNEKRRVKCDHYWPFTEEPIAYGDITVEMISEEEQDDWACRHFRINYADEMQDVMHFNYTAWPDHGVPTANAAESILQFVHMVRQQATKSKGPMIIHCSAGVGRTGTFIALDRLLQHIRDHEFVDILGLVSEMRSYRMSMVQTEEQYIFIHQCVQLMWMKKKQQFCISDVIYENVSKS
# Chain of PTPRC (P08575 26-1306, species assumed): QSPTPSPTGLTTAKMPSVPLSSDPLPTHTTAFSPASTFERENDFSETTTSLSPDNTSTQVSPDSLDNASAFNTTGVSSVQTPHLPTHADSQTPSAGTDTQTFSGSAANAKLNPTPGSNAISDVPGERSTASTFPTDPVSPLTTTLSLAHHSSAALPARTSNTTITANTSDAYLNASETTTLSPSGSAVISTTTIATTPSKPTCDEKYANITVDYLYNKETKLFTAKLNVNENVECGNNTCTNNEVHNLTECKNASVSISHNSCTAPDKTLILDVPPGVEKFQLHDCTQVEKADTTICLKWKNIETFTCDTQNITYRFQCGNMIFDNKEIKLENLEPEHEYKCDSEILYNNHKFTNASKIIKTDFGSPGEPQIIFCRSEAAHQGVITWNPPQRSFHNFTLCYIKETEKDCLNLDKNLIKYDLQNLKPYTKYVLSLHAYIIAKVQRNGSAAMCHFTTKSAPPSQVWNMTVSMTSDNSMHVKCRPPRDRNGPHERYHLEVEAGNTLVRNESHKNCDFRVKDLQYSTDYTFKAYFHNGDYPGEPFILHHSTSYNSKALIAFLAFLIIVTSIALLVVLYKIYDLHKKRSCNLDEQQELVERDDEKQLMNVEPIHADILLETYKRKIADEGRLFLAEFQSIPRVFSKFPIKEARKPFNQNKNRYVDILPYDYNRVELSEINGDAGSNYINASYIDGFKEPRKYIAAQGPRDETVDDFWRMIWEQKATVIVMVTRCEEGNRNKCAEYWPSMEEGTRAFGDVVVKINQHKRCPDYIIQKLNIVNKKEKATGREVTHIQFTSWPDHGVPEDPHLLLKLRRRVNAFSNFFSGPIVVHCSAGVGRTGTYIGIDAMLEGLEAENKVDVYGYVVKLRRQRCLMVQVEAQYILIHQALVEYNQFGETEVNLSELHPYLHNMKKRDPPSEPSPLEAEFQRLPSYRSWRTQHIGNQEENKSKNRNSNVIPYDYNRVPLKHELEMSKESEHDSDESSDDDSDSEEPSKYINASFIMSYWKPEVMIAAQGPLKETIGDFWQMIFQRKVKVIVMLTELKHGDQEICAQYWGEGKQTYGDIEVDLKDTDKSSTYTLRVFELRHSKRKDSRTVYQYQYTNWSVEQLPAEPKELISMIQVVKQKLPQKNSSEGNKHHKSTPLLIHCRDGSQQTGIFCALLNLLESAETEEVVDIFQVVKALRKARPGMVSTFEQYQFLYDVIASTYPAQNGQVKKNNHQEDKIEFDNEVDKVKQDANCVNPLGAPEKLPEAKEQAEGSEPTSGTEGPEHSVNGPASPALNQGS
# Chain of PTPH1 (P26045 whole entry, species assumed): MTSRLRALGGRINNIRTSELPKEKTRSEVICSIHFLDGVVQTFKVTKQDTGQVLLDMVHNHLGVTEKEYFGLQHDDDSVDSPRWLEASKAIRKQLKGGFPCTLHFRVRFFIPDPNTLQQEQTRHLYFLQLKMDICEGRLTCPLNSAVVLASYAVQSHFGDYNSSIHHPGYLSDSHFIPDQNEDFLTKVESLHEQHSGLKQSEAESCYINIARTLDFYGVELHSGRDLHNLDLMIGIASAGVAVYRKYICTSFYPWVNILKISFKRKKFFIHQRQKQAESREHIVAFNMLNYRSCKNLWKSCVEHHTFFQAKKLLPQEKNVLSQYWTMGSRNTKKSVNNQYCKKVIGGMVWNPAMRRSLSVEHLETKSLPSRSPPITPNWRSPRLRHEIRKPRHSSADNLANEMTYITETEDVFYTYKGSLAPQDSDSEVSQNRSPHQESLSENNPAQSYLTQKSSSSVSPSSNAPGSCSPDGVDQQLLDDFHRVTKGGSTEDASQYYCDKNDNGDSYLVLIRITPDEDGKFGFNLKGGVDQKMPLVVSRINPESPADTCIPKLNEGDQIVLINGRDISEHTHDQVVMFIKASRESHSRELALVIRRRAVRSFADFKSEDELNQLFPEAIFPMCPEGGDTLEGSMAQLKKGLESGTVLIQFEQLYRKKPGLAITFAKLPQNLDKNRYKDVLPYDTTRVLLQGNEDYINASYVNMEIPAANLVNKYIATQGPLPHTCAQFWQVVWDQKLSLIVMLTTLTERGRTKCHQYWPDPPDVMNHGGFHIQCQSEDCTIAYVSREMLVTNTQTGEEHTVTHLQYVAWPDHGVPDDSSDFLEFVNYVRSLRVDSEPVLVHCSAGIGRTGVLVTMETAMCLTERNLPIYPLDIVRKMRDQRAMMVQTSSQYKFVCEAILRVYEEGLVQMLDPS
# Chain of SHP1 (P29350 whole entry): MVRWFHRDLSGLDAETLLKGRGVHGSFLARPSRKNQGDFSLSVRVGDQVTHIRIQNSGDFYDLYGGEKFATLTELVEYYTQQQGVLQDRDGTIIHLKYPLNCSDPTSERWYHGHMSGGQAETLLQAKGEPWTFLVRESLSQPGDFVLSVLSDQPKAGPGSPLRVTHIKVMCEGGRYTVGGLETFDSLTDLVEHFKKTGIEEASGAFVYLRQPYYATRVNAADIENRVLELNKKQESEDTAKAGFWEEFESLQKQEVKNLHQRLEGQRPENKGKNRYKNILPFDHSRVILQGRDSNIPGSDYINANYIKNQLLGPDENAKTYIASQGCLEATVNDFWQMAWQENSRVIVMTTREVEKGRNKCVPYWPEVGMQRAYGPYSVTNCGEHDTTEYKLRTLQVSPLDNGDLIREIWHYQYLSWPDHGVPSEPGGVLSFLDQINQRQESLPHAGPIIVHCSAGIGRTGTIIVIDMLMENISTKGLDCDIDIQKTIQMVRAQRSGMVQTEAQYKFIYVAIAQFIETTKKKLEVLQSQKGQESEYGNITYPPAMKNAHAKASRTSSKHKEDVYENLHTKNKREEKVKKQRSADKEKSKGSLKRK
smiles,measurement,setting,value
"C[C@@H]1NC(=O)[C@H](CCCNC(=N)N)NC(=O)[C@H](Cc2ccc3ccccc3c2)NC(=O)[C@@H]2CCCCN2C(=O)[C@@H]([C@H](C)OP(=O)(O)O)NC(=O)CN(C)C(=O)[C@@H](C)NC(=O)c2cc3cc(c2)C(=O)NC[C@H](NC(=O)[C@@H](C)NC1=O)C(=O)N[C@@H](Cc1ccccc1)C(=O)N[C@@H](Cc1ccc2ccccc2c1)C(=O)N[C@@H](CCCNC(=N)N)C(=O)N[C@@H](CCCNC(=N)N)C(=O)N[C@@H](CCCNC(=N)N)C(=O)N[C@@H](CCCNC(=N)N)C(=O)N[C@H](C(=O)N[C@@H](CCCCN)C(N)=O)CNC3=O [Peptide 1, bicyclo[Tm-(D-Ala-Sar-D-pThr-Pip-Nal-Arg-Ala-D-Ala)-Dap-(Phe-Nal-Arg-Arg-Arg-Arg-Dap)]-Lys] ([dA][Sar][d(pT)][Pip][2Nal]RA[dA][Dap]F[2Nal]RRRR[Dap]K-NH2; linker N-9-16 via Trimesoyl)",Competition with FITC-labeled inhibitor 5 for binding to Pin1,[1],competed
same,IC50,[2],1800 nM
same,Inhibition of cell growth,[3],45%
same,Improvement of inhibitor potency vs peptide 6,[4],~2 fold
same,Kd,"[4]; FITC-labeled peptide, FA analysis",72 nM
same,Mean fluorescence intensity (MFI),[5],2562
same,Increase in the PML level,[6],3.1 fold
"CC(C)[C@H]1NC(=O)[C@H](CO)NC(=O)[C@H](CCC(N)=O)NC(=O)[C@H](Cc2ccccc2)NC(=O)[C@H](Cc2ccc3ccccc3c2)NC(=O)[C@H](CCCNC(=N)N)NC(=O)[C@H](CCCNC(=N)N)NC(=O)[C@H](CCCNC(=N)N)NC(=O)[C@H](CCCNC(=N)N)NC(=O)[C@H](Cc2c[nH]cn2)NC(=O)[C@H](Cc2ccc(C(F)(F)P(=O)(O)O)cc2)NC(=O)[C@@H]2CCCN2C1=O [Monocyclic Inhibitor 2, cyclo(Ser-D-Val-Pro-F2Pmp-His-Arg-Arg-Arg-Arg-Nal-Phe-Gln)] (cyclo(S[dV]P[F2Pmp]HRRRR[2Nal]FQ))",Cellular uptake (confocal),[7],poor cellular uptake
same,IC50,[8],~30 nM
CC(C)[C@H]1NC(=O)[C@H](CO)NC(=O)c2cc3cc(c2)C(=O)NC[C@H](NC(=O)[C@H](Cc2c[nH]cn2)NC(=O)[C@H](Cc2ccc(C(F)(F)P(=O)(O)O)cc2)NC(=O)[C@@H]2CCCN2C1=O)C(=O)N[C@@H](CCCNC(=N)N)C(=O)N[C@@H](CCCNC(=N)N)C(=O)N[C@@H](CCCNC(=N)N)C(=O)N[C@@H](CCCNC(=N)N)C(=O)N[C@@H](Cc1ccc2ccccc2c1)C(=O)N[C@@H](Cc1ccccc1)C(=O)N[C@H](C(=O)N[C@@H](CCCCN)C(N)=O)CNC3=O [Bicyclic Inhibitor 4] (S[dV]P[F2Pmp]H[Dap]RRRR[2Nal]F[Dap]K-NH2; linker N-6-13 via Trimesoyl; C-terminus assumed),inhibition at 1 µM,[9],< 10%
same,inhibition at 1 µM,[10],< 10%
same,inhibition at 1 µM,[11],< 10%
same,inhibition at 1 µM,[12],< 10%
same,inhibition at 1 µM,[13],< 10%
same,"metabolised at 24 h, 5 μM",[14],~10%
